Test results reported in PubChem BioAssay (NCI).
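GI50 marks 50% less growth. Definition used: TGI = concentration required for complete inhibition of growth.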

Columns and labels:
Assay in all cases: inhibition of tumour cell growth, NCI panel, 384-well format; in the data active = GI50 below about 0.43 µM; inactive = the rest
NCI-H322M lung = test system: NCI-H322M lung
NCI-H460 NSCLC = test system: NCI-H460 NSCLC
NCI-H522 lung = test system: NCI-H522 lung
NCI/ADR-RES ovarian = test system: NCI/ADR-RES ovarian
OVCAR-3 ovarian = test system: OVCAR-3 ovarian
OVCAR-4 ovarian = test system: OVCAR-4 ovarian
OVCAR-5 ovarian = test system: OVCAR-5 ovarian
OVCAR-8 ovarian = test system: OVCAR-8 ovarian
PC-3 prostate = test system: PC-3 prostate
RPMI-8226 leukemia = test system: RPMI-8226 leukemia
RXF 393 renal = test system: RXF 393 renal
SF-268 CNS = test system: SF-268 CNS
SF-295 CNS = test system: SF-295 CNS
SF-539 CNS = test system: SF-539 CNS
SK-MEL-2 melanoma = test system: SK-MEL-2 melanoma
SK-MEL-28 melanoma = test system: SK-MEL-28 melanoma
SK-MEL-5 melanoma = test system: SK-MEL-5 melanoma
SK-OV-3 ovarian = test system: SK-OV-3 ovarian
SN12C renal = test system: SN12C renal
SNB-19 CNS = test system: SNB-19 CNS
SR leukemia = test system: SR leukemia
T-47D breast = test system: T-47D breast
TK-10 renal = test system: TK-10 renal
U251 glioblastoma = test system: U251 glioblastoma
UACC-257 melanoma = test system: UACC-257 melanoma
UACC-62 melanoma = test system: UACC-62 melanoma
UO-31 renal = test system: UO-31 renal

Cc1cccc2c1NC(=O)[C@@H](NC(=O)[C@H](CCC(F)(F)F)[C@H](CCC(F)(F)F)C(N)=O)N=C2c1cccc(F)c1
58.5 µM: TGI (SK-MEL-2 melanoma)
69.5 µM: TGI (UO-31 renal)
26.1 µM: TGI (NCI-H522 lung)
55 µM: TGI (UACC-257 melanoma)
2.54 µM: TGI (SR leukemia)
72.9 µM: TGI (U251 glioblastoma)
62.5 µM: TGI (OVCAR-8 ovarian)
34.1 µM: TGI (SF-539 CNS)
40.8 µM: TGI (OVCAR-4 ovarian)
> 100 µM: TGI (NCI-H322M lung) | TGI (NCI-H460 NSCLC) | TGI (NCI/ADR-RES ovarian) | TGI (OVCAR-3 ovarian) | TGI (OVCAR-5 ovarian) | TGI (PC-3 prostate) | TGI (RPMI-8226 leukemia) | TGI (SK-MEL-5 melanoma) | TGI (SN12C renal) | TGI (SNB-19 CNS) | TGI (T-47D breast) | TGI (TK-10 renal) | TGI (UACC-62 melanoma)
60 µM: TGI (SF-295 CNS)
41.3 µM: TGI (SF-268 CNS)
46.8 µM: TGI (SK-OV-3 ovarian)
22.9 µM: TGI (RXF 393 renal)
68 µM: TGI (SK-MEL-28 melanoma)
inactive: GI50 (NCI-H460 NSCLC) 4.08 µM | GI50 (NCI-H522 lung) 8.01 µM | GI50 (NCI/ADR-RES ovarian) 56.3 µM | GI50 (OVCAR-3 ovarian) 20 µM | GI50 (OVCAR-4 ovarian) 18 µM | GI50 (OVCAR-5 ovarian) 37.7 µM | GI50 (OVCAR-8 ovarian) 21.5 µM | GI50 (PC-3 prostate) > 100 µM | GI50 (RPMI-8226 leukemia) 5.27 µM | GI50 (RXF 393 renal) 5.72 µM | GI50 (SF-268 CNS) 17 µM | GI50 (SF-295 CNS) 24.3 µM | GI50 (SF-539 CNS) 16.3 µM | GI50 (SK-MEL-2 melanoma) 16.9 µM | GI50 (SK-MEL-28 melanoma) 22.5 µM | GI50 (SK-MEL-5 melanoma) 25.3 µM | GI50 (SK-OV-3 ovarian) 19.3 µM | GI50 (SN12C renal) 70.1 µM | GI50 (SNB-19 CNS) 37.7 µM | GI50 (SR leukemia) 1.25 µM | GI50 (T-47D breast) 25.2 µM | GI50 (TK-10 renal) 38.4 µM | GI50 (U251 glioblastoma) 13.7 µM | GI50 (UACC-257 melanoma) 16.3 µM | GI50 (UACC-62 melanoma) 14.9 µM | GI50 (UO-31 renal) 25.6 µM
